Test results from ChEMBL document CHEMBL1148720, “Extensive SAR and computational studies of 3-{4-[(benzylmethylamino)methyl]phenyl}-6,7-dimethoxy-2H-2-chromenone (AP2238) derivatives” (J Med Chem, 2007).

Columns and labels:
Acetylcholinesterase [1] = target: T1, Acetylcholinesterase (Homo sapiens, UniProt P22303); assay: Inhibition of human recombinant AChE
Cholinesterase = Cholinesterase (Homo sapiens, UniProt P06276); assay: Inhibition of human recombinant BChE
Acetylcholinesterase [2] = target: T1, Acetylcholinesterase; assay: Inhibition of human AChE-mediated beta amyloid 1-40 aggregation at 100 uM

T1 sequence (P22303 whole entry): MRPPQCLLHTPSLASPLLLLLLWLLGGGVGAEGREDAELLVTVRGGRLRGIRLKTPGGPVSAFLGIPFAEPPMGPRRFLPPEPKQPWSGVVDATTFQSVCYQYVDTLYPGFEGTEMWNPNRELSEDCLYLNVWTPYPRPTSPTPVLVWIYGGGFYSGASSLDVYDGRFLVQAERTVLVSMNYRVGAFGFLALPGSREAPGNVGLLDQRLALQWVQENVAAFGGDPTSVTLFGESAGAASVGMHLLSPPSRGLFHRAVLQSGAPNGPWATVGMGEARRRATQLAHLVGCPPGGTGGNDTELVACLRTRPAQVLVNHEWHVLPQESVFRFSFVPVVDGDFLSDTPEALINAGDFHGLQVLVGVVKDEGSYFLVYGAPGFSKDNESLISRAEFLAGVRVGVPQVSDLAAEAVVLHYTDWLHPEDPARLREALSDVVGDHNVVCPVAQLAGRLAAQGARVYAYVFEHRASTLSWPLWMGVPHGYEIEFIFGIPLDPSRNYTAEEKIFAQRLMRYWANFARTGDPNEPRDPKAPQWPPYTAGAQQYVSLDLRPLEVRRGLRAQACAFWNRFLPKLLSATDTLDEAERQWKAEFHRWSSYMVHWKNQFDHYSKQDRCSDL
Cholinesterase, sequence (P06276 whole entry): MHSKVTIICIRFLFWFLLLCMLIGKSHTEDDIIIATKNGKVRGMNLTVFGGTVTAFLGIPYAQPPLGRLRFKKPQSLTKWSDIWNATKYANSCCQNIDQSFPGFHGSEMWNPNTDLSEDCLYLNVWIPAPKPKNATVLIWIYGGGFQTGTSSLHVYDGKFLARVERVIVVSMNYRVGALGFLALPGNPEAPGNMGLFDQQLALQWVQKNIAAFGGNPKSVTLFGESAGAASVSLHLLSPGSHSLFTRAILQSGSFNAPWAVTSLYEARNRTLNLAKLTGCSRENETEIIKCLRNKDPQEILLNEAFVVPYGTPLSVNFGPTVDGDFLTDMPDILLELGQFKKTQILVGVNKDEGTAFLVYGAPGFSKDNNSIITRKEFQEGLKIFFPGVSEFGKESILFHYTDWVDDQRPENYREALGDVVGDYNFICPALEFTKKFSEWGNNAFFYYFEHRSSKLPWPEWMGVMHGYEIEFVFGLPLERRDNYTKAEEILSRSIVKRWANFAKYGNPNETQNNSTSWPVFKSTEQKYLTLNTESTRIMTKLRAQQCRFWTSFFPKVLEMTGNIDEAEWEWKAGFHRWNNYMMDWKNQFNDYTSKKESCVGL

Row | Structure (SMILES) | IC50 (Acetylcholinesterase [1]) [µM] | IC50 (Cholinesterase) [µM] | inhibition (Acetylcholinesterase [2]) [%]
1 | COc1cc2cc(-c3ccc(C[N+](C)(C)Cc4ccccc4)cc3)c(=O)oc2cc1OC | 0.0105 | 43.8 | –
2 | COc1ccc2c(=O)cc(-c3ccc(CN(C)Cc4ccccc4)cc3)oc2c1 | 80.5 | – | –
3 | COc1cc2cc(-c3ccc(CN(C)Cc4cccc([N+](=O)[O-])c4)cc3)c(=O)oc2cc1OC | 0.368 | – | –
4 | COc1cc2cc(-c3ccc(CN(C)Cc4ccccc4[N+](=O)[O-])cc3)c(=O)oc2cc1OC | 0.987 | – | –
5 | CN(Cc1ccccc1)Cc1ccc(-c2cc3cc([N+](=O)[O-])ccc3oc2=O)cc1 | 0.148 | – | < 5
6 | COc1ccc2oc(=O)c(-c3cccc(CN(C)Cc4ccccc4)c3)cc2c1 | 0.303 | 136 | –
7 | COc1ccc2oc(-c3ccc(CN(C)Cc4ccccc4)cc3)cc(=O)c2c1 | 18.1 | 88.9 | –
8 | CCN(Cc1ccccc1)Cc1cccc(-c2coc3cc(OC)c(OC)cc3c2=O)c1 | 1.59 | – | –
9 | COc1cc2cc(-c3ccc(CN(CCO)Cc4ccccc4)cc3)c(=O)oc2cc1OC | 0.0493 | 35.1 | 6
10 | COc1cc2cc(-c3ccc(CN(C)Cc4ccccc4C)cc3)c(=O)oc2cc1OC | 0.366 | – | –
11 | COc1cc2cc(-c3ccc(CN(C)Cc4ccc(C)cc4)cc3)c(=O)oc2cc1OC | 0.31 | – | –
12 | COc1cc2occ(-c3cccc(CN(C)Cc4ccccc4)c3)c(=O)c2cc1OC | 2.02 | – | –
13 | CCN(Cc1ccccc1)Cc1ccc(-c2cc3cc(OC)c(OC)cc3oc2=O)cc1 | 0.0183 | – | 38
14 | CN(Cc1ccccc1)Cc1ccc(-c2cc3cc(N)ccc3oc2=O)cc1 | 0.281 | – | < 5
15 | COc1cc2occ(-c3ccc(CN(C)Cc4ccccc4)cc3)c(=O)c2cc1OC | 1.23 | – | –
16 | COc1cc2cc(-c3cccc(CN(C)Cc4ccccc4)c3)c(=O)oc2cc1OC | 0.202 | 279 | 25
17 | COc1cc2cc(-c3ccc(CN(C)Cc4ccccc4)cc3)c(=O)oc2cc1OC | – | – | 35
18 | COc1ccccc1CN(C)Cc1ccc(-c2cc3cc(OC)c(OC)cc3oc2=O)cc1 | 0.0621 | 52.9 | 15
19 | COc1ccc2cc(-c3ccc(CN(C)Cc4ccccc4)cc3)c(=O)oc2c1 | 0.892 | 570 | < 5
20 | COc1ccc2oc(=O)c(-c3ccc(CN(C)Cc4ccccc4)cc3)cc2c1 | 0.163 | 1300 | < 5
21 | COc1ccc(CN(C)Cc2ccc(-c3cc4cc(OC)c(OC)cc4oc3=O)cc2)cc1 | 2.26 | – | –
22 | COc1ccc2cc(-c3cccc(CN(C)Cc4ccccc4)c3)c(=O)oc2c1 | 2.29 | – | –
23 | COc1cc2oc3cc(CN(C)Cc4ccccc4)ccc3c(=O)c2cc1OC | 30.3 | – | –
24 | COc1cc2oc(-c3cccc(CN(C)Cc4ccccc4)c3)cc(=O)c2cc1OC | 2.27 | – | –
25 | COc1cccc(CN(C)Cc2ccc(-c3cc4cc(OC)c(OC)cc4oc3=O)cc2)c1 | 0.714 | – | –
26 | COc1cc2cc(-c3ccc(CN(C)Cc4cccc(C)c4)cc3)c(=O)oc2cc1OC | 0.122 | – | –
